Measured values reported in US6706692B1, “6-deoxy erythromycin derivatives, method for preparing same and use as medicines” (Aventis Pharma S.A., priority 1998, dated 2004).

Legend:
Experiment in all cases: Method of dilutions in liquid medium (M.I.C.)
Format in all cases: cell-based
Details in all cases: reading after 24 hours, 37° C.
[1] = system: E. faecalis 02D2UC1
Procedure: (§1) A—Method of Dilutions in Liquid Medium A series of tubesis prepared in which the same quantity of nutritive sterile medium is distributed. Increasing quantities of the product to be studied are distributed into each tube, then each tube is sown with a bacterial strain. After incubation for twenty-four hours in a heating chamber at 37° C., the growth inhibition is evaluated by transillumination, which allows the minimal inhibitory concentrations (M.I.C.) to be determined, expressed in micrograms/cm^3. The following results were obtained with the product of the example: (reading after 24 hours)

[2] = system: E. faecium 02D3HT1
Procedure: as §1

[3] = system: S. agalactiae 02B1HT1
Procedure: as §1

[4] = system: S. agalactiae 02B1SJ1c
Procedure: as §1

[5] = system: S. aureus 011UC4
Procedure: as §1

[6] = system: S. mitis 02MitCB1
Procedure: as §1

[7] = system: S. mitis 02MitGR16i
Procedure: as §1

[8] = system: S. pneumoniae 030GR20
Procedure: as §1

[9] = system: S. pneumoniae 030PW23c
Procedure: as §1

[10] = system: S. pneumoniae 030RO1i
Procedure: as §1

[11] = system: S. pneumoniae 030SJ5i
Procedure: as §1

[12] = system: S. pneumoniae 032UC1
Procedure: as §1

[13] = system: Streptococcus gr;G 02GOGR5
Procedure: as §1

## 3-de[2,6-dideoxy-3-C-methyl-3-0-methyl-alpha-L-ribo-hexopyranosyl)-oxy]-3-oxo-12,11-[oxycarbonyl[[4-[4-(3-pyridinyl)-1H-imidazol-1-yl]-butyl]-imino]]-6,11,12-trideoxy-erythromycin [product of the example]
[1]
  minimal inhibitory concentrations (M.I.C.): 0.080 micrograms/cm^3
[2]
  minimal inhibitory concentrations (M.I.C.): 0.040 micrograms/cm^3
[3]
  minimal inhibitory concentrations (M.I.C.): <+0.02 micrograms/cm^3
[4]
  minimal inhibitory concentrations (M.I.C.): 2.500 micrograms/cm^3
[5]
  minimal inhibitory concentrations (M.I.C.): 0.300 micrograms/cm^3
[6]
  minimal inhibitory concentrations (M.I.C.): 0.040 micrograms/cm^3
[7]
  minimal inhibitory concentrations (M.I.C.): 0.300 micrograms/cm^3
[8]
  minimal inhibitory concentrations (M.I.C.): 0.600 micrograms/cm^3
[9]
  minimal inhibitory concentrations (M.I.C.): 0.300 micrograms/cm^3
[10]
  minimal inhibitory concentrations (M.I.C.): 0.600 micrograms/cm^3
[11]
  minimal inhibitory concentrations (M.I.C.): 0.600 micrograms/cm^3
[12]
  minimal inhibitory concentrations (M.I.C.): <=0.02 micrograms/cm^3
[13]
  minimal inhibitory concentrations (M.I.C.): 0.040 micrograms/cm^3
